Laboratory results from ChEMBL document CHEMBL1140860, “Synthesis and evaluation of dihydroartemisinin and dihydroartemisitene acetal dimers showing anticancer and antiprotozoal activity” (Bioorg Med Chem, 2009).

Legend:
Mus musculus [1] = assay: Toxicity in human HL60 cells xenografted athymic nude mouse assessed as body weight loss at 25 mg/kg, sc administered QD for 10 days relative to control; type: organism-based, HL-60; parameters: dose 25 mg/kg, route subcutaneous; settings: in vivo, 240 h
OVCAR-5 = assay: Growth inhibition of human OVCAR5 cells after 48 hrs by sulforhodamine B assay; type: functional; settings: OVCAR-5, 48 h
Mus musculus [2] = assay: Toxicity in human HL60 cells xenografted athymic nude mouse assessed as mortality at 50 mg/kg, sc administered QD for 10 days; type: organism-based, HL-60; parameters: dose 50 mg/kg, route subcutaneous; settings: in vivo, 240 h
UACC-257 = assay: Growth inhibition of human UACC257 cells after 48 hrs by sulforhodamine B assay; type: functional; settings: UACC-257, 48 h
SK-OV-3 = assay: Growth inhibition of human SKOV3 cells after 48 hrs by sulforhodamine B assay; type: functional; settings: SK-OV-3, 48 h
HL-60 [3] = assay: Antitumor activity against human HL60 cells xenografted athymic nude mouse assessed as delay in tumor growth time at 25 mg/kg, sc administered QD; type: functional; settings: route subcutaneous
UACC-62 = assay: Growth inhibition of human UACC62 cells after 48 hrs by sulforhodamine B assay; type: functional; settings: UACC-62, 48 h
M14 = assay: Growth inhibition of human M14 cells after 48 hrs by sulforhodamine B assay; type: functional; settings: M14, 48 h
Mus musculus [4] = assay: Toxicity in human HL60 cells xenografted athymic nude mouse assessed as mortality at 25 mg/kg, sc administered QD for 10 days; type: organism-based, HL-60; parameters: dose 25 mg/kg, route subcutaneous; settings: in vivo, 240 h
[5] = Growth inhibition of human […] cells after 48 hrs by sulforhodamine B assay; type: functional
T47D = assay: Growth inhibition of human T47D cells after 48 hrs by sulforhodamine B assay; type: functional
SF-295 = assay: Growth inhibition of human SF295 cells after 48 hrs by sulforhodamine B assay; type: functional; settings: SF-295, 48 h
PC-3 = assay: Growth inhibition of human PC3 cells after 48 hrs by sulforhodamine B assay; type: functional; settings: PC-3, 48 h
HUVEC [6] = assay: Antiangiogenic activity against HUVEC assessed as growth inhibition by NCI antiangiogenesis assay; type: functional, cell-based; settings: Homo sapiens
Plasmodium falciparum = assay: Antimalarial activity after 72 hrs against chloroquine-sensitive Plasmodium falciparum D6 infected in erythrocytes by LDH assay; type: functional, organism-based; settings: D6, 72 h
HUVEC [7] = assay: Antiangiogenic activity against HUVEC assessed as inhibition of VEGF-induced cell migration by NCI antiangiogenesis assay; type: functional, cell-based; settings: Homo sapiens
HL-60 [8] = assay: Antitumor activity against human HL60 cells xenografted athymic nude mouse at 25 mg/kg, sc administered QD for 10 days relative to control; type: functional; settings: route subcutaneous
HUVEC [9] = assay: Antiangiogenic activity against HUVEC assessed as inhibition of capillary-like structure formation by NCI antiangiogenesis assay; type: functional, cell-based; settings: Homo sapiens
NCI-H226 = assay: Growth inhibition of human NCI-H226 cells after 48 hrs by sulforhodamine B assay; type: functional; settings: NCI-H226, 48 h
DU-145 = assay: Growth inhibition of human DU145 cells after 48 hrs by sulforhodamine B assay; type: functional; settings: DU-145, 48 h
[10] = Selectivity index, ratio of TC50 for african green monkey (Cercopithecus aethiops) Vero cells to IC50 for chloroquine-sensitive Plasmodium falciparum D6; type: toxicity, cell-based
MDA-N = assay: Growth inhibition of human MDA-N cells after 48 hrs by sulforhodamine B assay; type: functional
[11] = Cytotoxicity against african green monkey Vero cells after 48 hrs by neutral red assay; type: cell-based; settings: chlorocebus sabaeus, read-out: TC50
Leishmania donovani = assay: Antileishmanial activity against Leishmania donovani promastigotes after 48 hrs by alamar-blue assay; type: functional, organism-based
HL-60 [12] = assay: Antitumor activity against human HL60 cells xenografted athymic nude mouse assessed as delay in tumor growth time at 50 mg/kg, sc administered QD; type: functional; settings: route subcutaneous
HL-60 [13] = assay: Antitumor activity against human HL60 cells xenografted athymic nude mouse at 50 mg/kg, sc administered QD for 10 days relative to control; type: functional; settings: route subcutaneous
Mus musculus [14] = assay: Toxicity in human HL60 cells xenografted athymic nude mouse assessed as body weight loss at 50 mg/kg, sc administered QD for 10 days relative to control; type: organism-based, HL-60; parameters: dose 50 mg/kg, route subcutaneous; settings: in vivo, 240 h

SMILES | GI50 (OVCAR-5) [µM] | GI50 (UACC-257) [µM] | GI50 (SK-OV-3) [µM] | GI50 (UACC-62) [µM] | GI50 (M14) [µM] | GI50 [5] [µM] | GI50 (T47D) [µM] | GI50 (SF-295) [µM] | GI50 (PC-3) [µM] | IC50 (HUVEC [6]) [µM] | IC50 (Plasmodium falciparum) [µM] | IC50 (HUVEC [7]) [µM] | IC50 (HUVEC [9]) [µM] | GI50 (NCI-H226) [µM] | GI50 (DU-145) [µM] | selectivity ratio [10] | GI50 (MDA-N) [µM] | CC50 at 48 h [11] [µM] | IC50 (Leishmania donovani) [µM] | IC90 (Leishmania donovani) [µM] | further results
C[C@H]1[C@@H](OCC(CO[C@H]2O[C@@H]3O[C@@]4(C)CC[C@H]5[C@H](C)CC[C@@H]([C@H]2C)[C@@]35OO4)OC(=O)CCC(=O)O)O[C@@H]2O[C@@]3(C)CC[C@H]4[C@H](C)CC[C@@H]1[C@@]24OO3 (some centres not stated) | < 0.01 | 0.046 | 27.2 | 0.077 | < 0.01 | < 0.01 | < 0.01 | 0.034 | < 0.01 | 56 | 1.4 | 45.3 | 45.8 | 0.048 |  |  |  |  |  |  | Activity (Mus musculus [1]): 1%; Activity (Mus musculus [2]): Toxic; Activity (HL-60 [3]): 30 days; Activity (Mus musculus [4]): Non-toxic; T/C (HL-60 [8]): 23%
COCC(CO[C@H]1O[C@@H]2O[C@@]3(C)CC[C@H]4[C@H](C)CC[C@@H]([C@H]1C)[C@@]24OO3)O[C@H]1O[C@@H]2O[C@@]3(C)CC[C@H]4[C@H](C)CC[C@@H]([C@H]1C)[C@@]24OO3 (some centres not stated) | 0.104 | 0.159 | 10.9 | 0.135 | 0.049 | 0.004 | 0.014 | 4.63 | 0.019 |  | 17.2 |  |  | 0.087 | 8.34 | > 43 | 0.518 | > 745 |  |  | 
C[C@H]1[C@H](OCCO[C@H]2O[C@@H]3O[C@@]4(C)CC[C@H]5[C@H](C)CC[C@@H]([C@H]2C)[C@@]35OO4)O[C@@H]2O[C@@]3(C)CC[C@H]4[C@H](C)CC[C@@H]1[C@@]24OO3 | 0.059 | 0.054 | 17.9 | 0.072 | 7.6 | < 0.008 | 0.016 | 1.1 | 0.022 |  | 31.9 |  |  | 9.54 | 8.19 | > 25 | 0.061 | > 800 |  |  | 
C[C@H]1[C@@H](OCC(=O)CO[C@H]2O[C@@H]3O[C@@]4(C)CC[C@H]5[C@H](C)CC[C@@H]([C@H]2C)[C@@]35OO4)O[C@@H]2O[C@@]3(C)CC[C@H]4[C@H](C)CC[C@@H]1[C@@]24OO3 | < 0.01 | < 0.01 | 15.8 | < 0.01 | < 0.01 | < 0.01 | < 0.01 | 7.24 | < 0.01 | 57 | 1.1 | 28.5 | > 50 | 0.331 | 11.2 | > 6800 | 0.026 | > 7640 | 10.4 | 80.3 | 
C[C@H]1[C@@H](O[C@H]2CC[C@@H](O[C@H]3O[C@@H]4O[C@@]5(C)CC[C@H]6[C@H](C)CC[C@@H]([C@H]3C)[C@@]46OO5)CC2)O[C@@H]2O[C@@]3(C)CC[C@H]4[C@H](C)CC[C@@H]1[C@@]24OO3 | 0.152 | 0.027 | 0.034 | 0.022 | 0.027 | < 0.005 | < 0.005 | 0.028 | 0.011 | 42 | 4.6 | 3.3 | 38.8 | 0.347 | 0.028 | > 1590 | 0.024 | > 7340 | 7.7 | 77.1 | Activity (Mus musculus [1]): 3%; Activity (Mus musculus [2]): Non-toxic; Activity (HL-60 [12]): 36 days; Activity (HL-60 [3]): 8 days; Activity (Mus musculus [4]): Non-toxic; T/C (HL-60 [13]): 34%; T/C (HL-60 [8]): 50%; Activity (Mus musculus [14]): 17%
C[C@H]1[C@@H](O[C@H]2CC[C@H](O[C@H]3O[C@@H]4O[C@@]5(C)CC[C@H]6[C@H](C)CC[C@@H]([C@H]3C)[C@@]46OO5)CC2)O[C@@H]2O[C@@]3(C)CC[C@H]4[C@H](C)CC[C@@H]1[C@@]24OO3 | 0.042 | 0.074 | 0.166 | 0.045 | 0.061 | < 0.01 | < 0.01 | 0.061 | < 0.01 |  | 5.4 |  |  | 0.025 | 0.34 | 1360 | 0.077 | > 7340 | 7.4 | 18.5 | 
C[C@H]1[C@@H](OCC(O)CO[C@@H]2C[C@@H]3CC[C@@H](C)[C@@H]4CC[C@@]5(C)OO[C@@]34[C@H](O2)O5)O[C@@H]2O[C@@]3(C)CC[C@H]4[C@H](C)CC[C@@H]1[C@@]24OO3 (some centres not stated) | 17.7 | 0.257 | 21.4 | 0.296 | 14.9 | 0.024 | 0.027 | 9.52 | 0.035 | 77 | 0.3 | 1.8 | 30.8 | 61.7 | 13.8 | > 23800 | 0.368 | > 7620 | 5 | 16 | Activity (Mus musculus [1]): 2%; Activity (Mus musculus [2]): Non-toxic; Activity (HL-60 [12]): 34 days; Activity (HL-60 [3]): 16 days; Activity (Mus musculus [4]): Non-toxic; T/C (HL-60 [13]): 34%; T/C (HL-60 [8]): 68%; Activity (Mus musculus [14]): 5%
C[C@H]1[C@@H](OCCO[C@H]2O[C@@H]3O[C@@]4(C)CC[C@H]5[C@H](C)CC[C@@H]([C@H]2C)[C@@]35OO4)O[C@@H]2O[C@@]3(C)CC[C@H]4[C@H](C)CC[C@@H]1[C@@]24OO3 | 0.083 | 0.343 | 0.798 | 0.343 | 0.183 | < 0.01 | 0.015 | 0.8 | 0.01 |  | 1.7 |  |  | 0.321 | 0.22 | > 48 | 0.219 | > 80 |  |  | 
